Measurements published in paper PMC6332029, “Mimosine Dipeptide Enantiomsers: Improved Inhibitors against Melanogenesis and Cyclooxygenase” (Molecules, 2015).
Values joined by “and” are separate entries in the source; they are usually repeats but may differ in a detail not shown here. Identical values can stand only once. Like-named read-outs stand apart in the source and are kept apart here.

Assays:
COX-2 [1] = assay: Colorimetric COX (ovine) inhibitor screening assay, COX-2; assay type: biochemical; details: ratio of COX-1 IC50 to COX-2 IC50
Protocol: (§1) Inhibition of COX activity was measured using a colorimetric COX (ovine) inhibitor screening assay kit (Cayman Chemical, Ann Arbor, Michigan, USA). First, 150 μL of assay buffer (0.1 M Tris-HCl, pH 8.0), 10 μL of heme, and 10 μL of enzyme (COX-1 or COX-2) were added to an […] 96-well microtiter plate. Immediately, 10 μL of sample was added to inhibitor wells while 10 μL of solvent or buffer was added to control and background wells, respectively. […] The mixture was shaken for a few seconds and incubated for an additional 5 min at 25 °C. The absorbance was determined at 590 nm using a microplate reader (Benchmark plus, Biorad, Herfordshire, UK). […] The corrected absorbance of all the samples and controls was calculated by subtracting the absorbance of the background wells. The percentage of inhibition was calculated as follows: Inhibition (%) = (Ao − As)/Ao × 100 (2) where Ao and As are the absorbance of the corrected control and sample, respectively.

COX-2 [2] = molecular target: T1, COX-2 (Ovis aries, UniProt P79208); assay: as above; assay type: biochemical; details: ovine COX-2, colorimetric kit; mean ± SE
T1 sequence (P79208 17-603): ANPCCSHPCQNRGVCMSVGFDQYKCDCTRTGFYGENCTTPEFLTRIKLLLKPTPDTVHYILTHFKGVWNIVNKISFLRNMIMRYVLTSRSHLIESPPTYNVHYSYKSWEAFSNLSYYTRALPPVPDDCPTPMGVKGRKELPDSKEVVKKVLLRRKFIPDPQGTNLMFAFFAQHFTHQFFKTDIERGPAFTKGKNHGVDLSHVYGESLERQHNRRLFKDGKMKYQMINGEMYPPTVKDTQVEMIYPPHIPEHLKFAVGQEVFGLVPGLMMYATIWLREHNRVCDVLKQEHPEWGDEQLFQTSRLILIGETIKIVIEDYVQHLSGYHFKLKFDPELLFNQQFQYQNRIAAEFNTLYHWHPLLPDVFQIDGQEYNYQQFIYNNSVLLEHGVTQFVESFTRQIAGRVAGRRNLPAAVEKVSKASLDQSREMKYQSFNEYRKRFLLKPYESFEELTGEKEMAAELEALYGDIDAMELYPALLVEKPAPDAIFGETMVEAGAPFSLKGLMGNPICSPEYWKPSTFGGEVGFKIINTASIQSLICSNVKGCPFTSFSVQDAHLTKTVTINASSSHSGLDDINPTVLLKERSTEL
Protocol: as §1

[3] = test system: intracellular tyrosinase in B16F10 melanoma cells; assay: Intracellular tyrosinase inhibition assay; assay type: cell-based, Mouse; details: L-DOPA substrate, mean ± SE, read-out: IC50 for Cellular Tyrosinase Inhibition
Protocol: (§2) Mouse B16F10 cell line was obtained from American Type Culture Collection (Manassas, VA, USA). Cells were cultured in Dulbecco’s modified minimum essential medium (D-MEM) medium containing 10% fetal bovine serum (FBS), 1% penicillin/streptomycin in a humidified atmosphere with 5% CO2 incubator at 37 °C.
Cells were seeded in a 96-well plate at a density 5 × 10^3 cells/well and the compounds (10–500 μM) were added after 24 h treatment. Cells were incubated for 48 h, washed two times with 50 mM of ice-cold phosphate buffer (pH 6.8), lysed with 90 μL of 50 mM phosphate buffer (pH 6.8) containing 1% Triton-X, and frozen at −80 °C for 30 min. After thawing and mixing, 20 μL of 0.5% L-DOPA was added to each well. The mixture was incubated for 2 h at 37 °C and absorbance was measured at 490 nm.

B16F10 melanoma cells = assay: Determination of melanin content in B16F10 cells; assay type: cell-based, Mouse; details: read-out: IC50 for Melanin Content Inhibition
Protocol: as §2
The assay was performed following previously described procedure. Cells (5 × 10^3 cells/well) were seeded in a 96-well plate and cultured for 24 h. Compounds (10–500 μM) were added and incubated at 37 °C for 48 h. The medium was replaced by a fresh medium containing the same concentration of compound and the cells were incubated for 48 h. The medium was removed and the cells were dissolved in 100 μL of 1 N NaOH. The reaction was heated at 90 °C for 1 h. Melanin content was estimated by the absorbance at 400 nm.

mushroom tyrosinase [4] = test system: mushroom tyrosinase; design: method as in doi:10.1016/S0031-9422(00)82317-1; details: cited from earlier work
COX-1 = molecular target: T2, COX-1 (Ovis aries, UniProt P05979); assay: Colorimetric COX (ovine) inhibitor screening assay, COX-1; assay type: biochemical; details: ovine COX-1, colorimetric kit; mean ± SE
T2 construct: purchased Cayman Chemical, Ann Arbor, Michigan, USA
T2 sequence (P05979 25-600): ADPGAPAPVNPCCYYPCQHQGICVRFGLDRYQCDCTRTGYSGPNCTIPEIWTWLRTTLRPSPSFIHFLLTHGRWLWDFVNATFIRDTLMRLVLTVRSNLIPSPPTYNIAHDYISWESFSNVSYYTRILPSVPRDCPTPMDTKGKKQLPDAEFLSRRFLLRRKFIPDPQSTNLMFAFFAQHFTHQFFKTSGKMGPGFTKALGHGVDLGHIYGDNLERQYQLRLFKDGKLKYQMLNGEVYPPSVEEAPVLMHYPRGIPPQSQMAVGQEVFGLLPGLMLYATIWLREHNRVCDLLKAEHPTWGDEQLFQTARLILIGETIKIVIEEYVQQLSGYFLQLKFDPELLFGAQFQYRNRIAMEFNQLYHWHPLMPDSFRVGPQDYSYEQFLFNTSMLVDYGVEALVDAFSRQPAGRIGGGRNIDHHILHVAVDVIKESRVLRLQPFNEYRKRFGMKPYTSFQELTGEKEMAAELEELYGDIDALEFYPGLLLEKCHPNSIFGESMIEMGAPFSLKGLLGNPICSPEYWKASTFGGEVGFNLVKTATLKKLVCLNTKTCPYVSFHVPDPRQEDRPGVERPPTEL
Protocol: as §1

mushroom tyrosinase [5] = assay: Mushroom tyrosinase inhibition microplate assay (L-tyrosine substrate); assay type: biochemical; details: L-tyrosine as substrate; mean ± SE
Protocol: (§3) A microplate assay was used to assess tyrosinase inhibition, as previously described. Samples (20 μL) with various concentrations were transferred into each well of 96-well plate, and 120 μL of 20 mM sodium phosphate buffer (pH 6.8), 20 μL of 500 U/mL mushroom tyrosinase enzyme dissolved in buffer were added. […] The absorbance was recorded at 470 nm using a microplate reader (Benchmark plus, Biorad, Herfordshire, UK). […] For the kinetic studies of selected inhibitors, we used a range of L-tyrosine concentrations for each inhibitor concentration. Preincubation and measurement times were the same as above. Lineweaver-Burk plots were used to determine the type of enzyme inhibition, and the inhibition constant Ki was determined by plotting Km/Vmax versus the inhibitor concentration. Percent inhibition was calculated using the following equation: Inhibition (%) = ([CE − Co] − [SE − So])/(CE − Co) × 100 (1) where CE is the absorbance of the control samples with enzyme, Co is the absorbance of the control samples without enzyme, SE is the absorbance of the tested sample with enzyme, and So is the absorbance of the tested sample without enzyme.

mushroom tyrosinase [6] = assay: Kinetic analysis of tyrosinase inhibition (Lineweaver-Burk plots); assay type: biochemical; details: substrate L-tyrosine; for Inhibition Type: Lineweaver-Burk plots, inhibitor 0, 5, 15 μM; for Ki: plot of Km/Vmax versus inhibitor concentration, read-out: Inhibition Constant (Ki)
Protocol: Tyrosinase activity was assayed as described in the text.
as §3

[7] = Mus musculus, B16-F10, mean ± SE

Compound	SI COX-1/COX-2 (selectivity index, COX-1 IC50/COX-2 IC50) (COX-2 [1])	IC50 (COX-2 [2])	IC50 ([3]; 48 h)	IC50 ([3]; Mus musculus, B16-F10, 48 h)	IC50 (B16F10 melanoma cells; [7])	IC50 (B16F10 melanoma cells; mean ± SE)	Inhibition type of tyrosinase (mushroom tyrosinase [4])	IC50 (COX-1)	IC50 (mushroom tyrosinase [5])	Inhibition Type (mushroom tyrosinase [6])	Ki (mushroom tyrosinase [6])
N[C@@H](Cn1ccc(=O)c(O)c1)C(=O)O [Mimosine, β-[N-(3-hydroxy-4-oxypyridyl)]-α-aminopropionic acid]	1.38	21 µM and 20.9 µM	388 ± 7.2 µM	~388 µM	~226 µM	226 ± 4 µM	competitive	29 µM and 28.8 µM	32.4 ± 1.1 µM		
N[C@@H](Cn1ccc(=O)c(O)c1)C(=O)N[C@@H](Cc1c[nH]c2ccccc12)C(=O)O [Mi-L-Trp]		19 µM and 19.3 µM		156 ± 8.3 µM	109 ± 2.7 µM			20.4 ± 1.6 µM	19.2 ± 1.5 µM		
C[C@H](NC(=O)[C@@H](N)Cn1ccc(=O)c(O)c1)C(=O)O [Mi-L-Ala]				172 ± 4.6 µM	128 ± 7.4 µM				23.1 ± 2.2 µM		
CC(C)[C@H](NC(=O)[C@@H](N)Cn1ccc(=O)c(O)c1)C(=O)O [Mi-L-Val]	1.12	22 µM and 21.7 µM		172 ± 6.5 µM	170 ± 7.5 µM			24.4 ± 1.4 µM	12 µM and 11.5 µM	competitive	30 µM
N[C@@H](Cn1ccc(=O)c(O)c1)C(=O)N1CCC[C@H]1C(=O)O [Mi-L-Pro]		29.3 ± 3 µM		167 ± 7.3 µM	110 ± 5.3 µM			17.9 ± 2.1 µM	13 µM and 13.1 µM	competitive	50 µM
N[C@@H](Cn1ccc(=O)c(O)c1)C(=O)N[C@@H](Cc1ccccc1)C(=O)O [Mi-L-Phe]				179.2 ± 1.3 µM	121 ± 8.6 µM				24.1 ± 3.8 µM		
N[C@@H](Cn1ccc(=O)c(O)c1)C(=O)N[C@H](Cc1c[nH]c2ccccc12)C(=O)O [Mi-D-Trp]	0.95	27.5 ± 2.2 µM		150 ± 2.3 µM	116 ± 4.9 µM			26.1 ± 1.3 µM	17 µM and 16.9 µM	competitive	80 µM
C[C@@H](NC(=O)[C@@H](N)Cn1ccc(=O)c(O)c1)C(=O)O [Mi-D-Ala]	0.10	198 ± 3.7 µM		181 ± 6.8 µM	199 ± 5.2 µM			19.1 ± 1 µM	17.7 ± 3.1 µM		
CC(C)[C@@H](NC(=O)[C@@H](N)Cn1ccc(=O)c(O)c1)C(=O)O [Mi-D-Val]				162 ± 4.1 µM	112 ± 8.1 µM				10 µM and 10.3 µM	competitive	20 µM
N[C@@H](Cn1ccc(=O)c(O)c1)C(=O)N[C@H](Cc1ccccc1)C(=O)O [Mi-D-Phe]				194 ± 6.2 µM	168.4 ± 1.4 µM				19.7 ± 0.8 µM		
N[C@@H](Cn1ccc(=O)c(O)c1)C(=O)N1CCC[C@@H]1C(=O)O [Mi-D-Pro]	0.15	128 ± 7.7 µM		146 ± 5.2 µM	123 ± 3 µM			21 ± 2 µM	17.2 ± 2.1 µM		
